From US20190125702A1, “Methods and Compositions for the Treatment of Demyelinating Disorders” (Vitality Biopharma, Inc., priority 2016, published 2019)
Entries after “also recorded” stand apart in the source; their conditions may differ.

How the values were obtained:
[1] = system: E18 rat embryonic cortical co-cultures (MBP fiber length/Olig2 nuclei); experiment: embryonic cortical cell co-culture myelination assay; format: cell-based; conditions: for EC50: Rattus norvegicus, 192 h, cortical myelination assay, eight days treatment, N >= 2; for myelination in the cortical myelination assay (in words): compound added DIV5, eight days, live axons
Text: Embryonic Cortical Culture Methods: The dissection of E18 rat (Charles River, Wilmington, Mass., USA) cortex is similar to that described previously, [32], [33] with some modifications. Briefly whole cortices from three embryos were collected in a petri dish containing HBSS. After carefully removing the meninges, the tissue was divided into cortical hemispheres, dissected and the non-cortical structures were removed. Cortical tissue was then digested in 7 U/ml papain dissolved in HBSS with 500 U/ml DNase I, and incubated for 30 minutes at 35° C. The enzymatic reaction was terminated with DMEM containing 10% FBS. The tissue was allowed to settle, supernatant was removed and tissue was triturated with a flame-polished glass Pasteur pipette in DMEM/10% FBS, 250 U/ml DNAse I until the tissue was completely dispersed. The dissociated cell suspension was centrifuged at 200×g for 5 minutes and supernatant replaced with plating medium (NB medium with 1× N21 supplement and 2 mM L-glutamine and 1% penicillin-streptomycin). […] Isolated cells were seeded onto 96-well plates pre-coated with poly-D-lysine (10 μg/m1) and laminin (2 ␣/ml) at a density of 20,000 cells/well ([…]). Neurons were allowed to adhere, recover, mature and extend axons for three days. On the fourth day, the plating medium was diluted with an equivolume of myelination medium (MyM), as described in Watkins et al., 2008 [9] with minor modifications (see results). The following day, two-thirds of the medium was replaced with fresh MyM and test compound. The day after establishing the primary culture was defined as day 1 in vitro (DIV1).
Immunofluorescence Staining and Imaging: At the experimental end point, medium was removed leaving 50 μl/well using an ELX405 microplate washer (BioTek, Winooski, Vt., USA). Cells were then fixed for 14 min with paraformaldehyde solution to a final concentration of 4%. Following fixation, plates were washed with 1 ml PBS leaving 50 μl/well using the microplate washer. Cells were then blocked in blocking buffer (10% normal goat serum, 0.1% Triton X-100, antibody buffer (150 mM NaCl, 50 mM Tris Base, 1% BSA, 100 mM L-lysine, 0.004% sodium azide, pH 7.4), and stained with mouse anti-rat MBP antibody and anti-rabbit Olig2 diluted in blocking buffer overnight at 4° C. The cells were washed and incubated with secondary antibodies, and DAPI, 0.3 μM for 1 h at room temperature. After a final wash, 100 μl of PBS was added to each well and plates imaged. Images were captured with a Nikon Eclipse TE-2000-U microscope, Zyla cMOS megapixel camera (ANDOR Technology, Belfast, UK), fitted with an automated stage controlled by NIS Elements AR software 4.0 (Melville, N.Y., USA). An air 10× lens was used to capture four images per well with 16 bit resolution, 2560×2160 pixels. Images for each assay run were captured using identical camera settings. Images were exported as TIFF files for analysis and quantification.
Image Quantification: TIFF files were analyzed using a custom algorithm created with IN Cell Investigator Developer Toolbox (GE Health Sciences, Piscataway, N.J., USA). For each well, four images were analyzed and the data from the duplicate well combined and averaged (total of eight images per test condition). The extent of OL differentiation was defined by the total threshold-selected area of MBP staining×MBP fluorescence intensity in this area divided by the total number of OLs (identified by Olig2 nuclear staining). We referred to this as the “MBP score” or “OL differentiation”. Earlier publications have characterized in vitro myelination as contiguous segments of MBP staining co-localizing with axons, representing the contact and ensheathment of axons with the myelin membrane generated by OLs.

[2] = system: purified OPCs from P7 Sprague-Dawley rat pups; experiment: acute oligodendrocyte differentiation assay with acutely purified OPCs; format: cell-based; conditions: 4 days culture, MBP staining intensity
Protocol: Acute Oligodendrocyte Differentiation Assay: OPCs from P7 Sprague-Dawley rat pups were purified by immunopanning and cultured as described. OPCs were plated at 5000 cells/well into pDL-Laminin coated 96-well TC plate wells and centrifuged at 200×g to facilitate cell attachment, survival, and assure even distribution of OPCs. Plated OPCs were pre-incubated for 1-2 hours at 37° C. in 10% CO2 incubator, followed by addition of test compounds in quadruplicate. Controls were added in eight replicate wells, negative control=0.1% DMSO final concentration; positive control=40 ng/ml T3. The day of OPC plating was considered DIV0. On DIV4, cells were fixed, immunostained, and imaged as described below. Minor modifications include blocking cells with 10% normal goat serum (NGS)/0.4% Triton X-100 and staining overnight at 4° C. with rat anti-MBP antibodies diluted in 10% NGS/0.08% Triton X-100. OL differentiation was quantified by IN Cell Developer Toolbox image analysis software which calculated the MBP staining intensity of two images per well. The extent of OL differentiation was defined by the total threshold-selected area of MBP staining×MBP fluorescence intensity in this area divided by the total number of OLs (identified by DAPI nuclear staining).

purified OPCs = conditions: lead compounds of published studies [2],[3],[4]; cited from earlier work

Compound | EC50 [1] | myelination in the cortical myelination assay (in words) [1] | also measured
N=C(N)NC(=O)c1nc(Cl)c(N)nc1N [Amiloride] | 8.9 µM | – | –
C[C@H]1[C@H](OC(=O)CCC(=O)O)O[C@@H]2O[C@@]3(C)CC[C@H]4[C@H](C)CC[C@@H]1[C@@]24OO3 [Artesunate] | 3.3 µM | – | –
COc1ccc(CC2c3cc(OC)c(OC)cc3CC[N+]2(C)CCC(=O)OCCCCCOC(=O)CC[N+]2(C)CCc3cc(OC)c(OC)cc3C2Cc2ccc(OC)c(OC)c2)cc1OC (stereo not shown) [Atracurium Besylate] | 5.3 µM | – | –
NC(=O)[C@@H](CCC(F)(F)F)N(Cc1ccc(-c2ncon2)cc1F)S(=O)(=O)c1ccc(Cl)cc1 [BMS 708, 163] | 0.067 µM | – | –
C[C@H](NC(=O)Cc1cc(F)cc(F)c1)C(=O)N[C@H](C(=O)OC(C)(C)C)c1ccccc1 [DAPT, N-[N-(3,5-Difluorophenacetyl)-L-alanyl]-S-phenylglycine t-butyl ester] | – | significant dose-dependent increases in myelination | reduction of the number of Olig2+ cells [1]: ~50%; DAPT/DMSO myelination ratio ([1]; 5 days NB/N21 and 8 days MyM plus test compound): 7.7; fiber/MBP score, typically observed ([1]; DAPT treated cultures): > 1.5; promotion of myelination, fold over DMSO ([1]; cultures without exogenously added OPCs): 1.76 fold over DMSO; average DAPT/DMSO Fiber/MBP ratio ([1]; entire NCC library screen, plate controls): 1.61
C[C@H]1O[C@@H](O[C@H]2[C@@H](O)C[C@H](O[C@H]3[C@@H](O)C[C@H](O[C@H]4CC[C@@]5(C)[C@H](CC[C@@H]6[C@@H]5C[C@@H](O)[C@]5(C)[C@@H](C7=CC(=O)OC7)CC[C@]65O)C4)O[C@@H]3C)O[C@@H]2C)C[C@H](O)[C@@H]1O [Digoxin] | 11.3 µM | – | –
CC(=O)O[C@@]12CO[C@@H]1C[C@H](O)[C@@]1(C)C(=O)[C@H](O)C3=C(C)[C@@H](OC(=O)[C@H](O)[C@@H](NC(=O)OC(C)(C)C)c4ccccc4)C[C@@](O)([C@@H](OC(=O)c4ccccc4)[C@H]21)C3(C)C [Docetaxel] | 0.1 µM | – | –
O=S(=O)(NC1CCC(c2cc(F)ccc2F)(S(=O)(=O)c2ccc(Cl)cc2)CC1)C(F)(F)F (stereo not shown) [MRK 560] | 0.082 µM | – | –
CN(Cc1cnc2nc(N)nc(N)c2n1)c1ccc(C(=O)N[C@@H](CCC(=O)O)C(=O)O)cc1 [Methotrexate] | 0.1 µM | – | Olig2+ nuclei expression (in words) ([1]; NCC library screen): very low overall Olig2+ nuclei expression
NC(=O)N1c2ccccc2CC(=O)c2ccccc21 [Oxcarbazepine] | 14.7 µM | – | –
O=c1[nH]c(=O)n(C2CCCO2)cc1F (stereo not shown) [Tegafur] | 2.7 µM | – | –
COc1cc(CNC(=O)CCCC/C=C\C(C)C)ccc1O [Zu-capsaicin] | 4.7 µM | – | –
CN1[C@@H]2CC[C@H]1C[C@@H](OC(c1ccccc1)c1ccccc1)C2 [benztropine] | – | little to no activity; also recorded: no effect on myelination; also recorded: did not promote myelination | OL differentiation of purified OPCs (in words) [2]: facilitate OL differentiation; also recorded: significant OL differentiation; OL differentiation in cultures of purified OPCs (published screens) (purified OPCs): facilitate OL differentiation
CN1CCC[C@@H]1CCO[C@](C)(c1ccccc1)c1ccc(Cl)cc1 [clemastine] | – | little to no activity; also recorded: no effect on myelination; also recorded: did not promote myelination | OL differentiation of purified OPCs (in words) [2]: facilitate OL differentiation; also recorded: significant OL differentiation; OL differentiation in cultures of purified OPCs (published screens) (purified OPCs): facilitate OL differentiation
C[C@H]1C[C@H]2[C@@H]3CCC4=CC(=O)C=C[C@]4(C)[C@@]3(F)[C@@H](O)C[C@]2(C)[C@@]1(O)C(=O)CCl [clobetasol] | – | no effect on myelination | OL differentiation in cultures of purified OPCs (published screens) (purified OPCs): facilitate OL differentiation
Clc1ccc(COC(Cn2ccnc2)c2ccc(Cl)cc2Cl)c(Cl)c1 (stereo not shown) [miconazole] | – | no effect on myelination | OL differentiation in cultures of purified OPCs (published screens) (purified OPCs): facilitate OL differentiation
